As a reminder, the MIC is the smallest concentration in the dilution series that meets the test's criterion for growth inhibition. As usually defined, the IC50 is the concentration at which inhibition is half-maximal.

The test system of one test is Rhodotorula glutinis. Put plainly: Antimicrobial activity against Rhodotorula glutinis. The class given is functional.
The test system of another test is Saccharomyces cerevisiae. Put plainly: Antimicrobial activity against Saccharomyces cerevisiae. It counts as functional.
For test [1], the system named is Candida albicans. Put plainly: Antimicrobial activity against Candida albicans. It counts as functional.
For the next test, the system named is Nakaseomyces glabratus. Put plainly: Antifungal activity against fluconazole-resistant Candida glabrata by CLSI protocol based macrobroth dilution method. It counts as functional.
The test system of the next test is Pichia kudriavzevii. Put plainly: Antifungal activity against fluconazole-resistant Candida krusei by CLSI protocol based macrobroth dilution method. It counts as functional. (Dilution methods test growth across graded concentrations, often in twofold steps.)
Another test concerns Fusarium graminearum. Put plainly: Antimicrobial activity against Fusarium graminearum. It counts as functional.
A further test relates to Alternaria brassicae. Put plainly: Antifungal activity against Alternaria brassicae assessed as inhibition of fungal growth. It counts as functional.
Test [2] has as its system Pyricularia oryzae. Put plainly: Antifungal activity against Pyricularia oryzae. The class given is functional.
The next test relates to Alternaria solani. Put plainly: Antifungal activity against Alternaria solani. The class given is functional.
The subject of a further test is Aspergillus. Put plainly: Antimicrobial activity against Aspergillus. It counts as functional.
The next test deals with Aspergillus flavus. Put plainly: Antifungal activity against Aspergillus flavus assessed as inhibition of fungal growth. It counts as functional, organism-based.
A further test relates to Aspergillus niger. Put plainly: Antifungal activity against Aspergillus niger. It counts as functional.
The test system of test [3] is Candida albicans. Put plainly: Antimicrobial activity against Candida albicans assessed as reduction of microbial microbial growth. It counts as functional.
For a further test, the system named is Candida tropicalis. Put plainly: Antifungal activity against Candida tropicalis. It counts as functional.
A further test has as its system Fusarium oxysporum. Put plainly: Antifungal activity against Fusarium oxysporum. The class given is functional.
The next test has as its system Lindra thalassiae. Put plainly: Antifungal activity against Lindra thalassiae assessed as lethal dose. It counts as functional. The settings on record: Lindriella thalassiae; read-out: LD50 (the source's name).
The subject of test [4] is Pyricularia oryzae. Put plainly: Antifungal activity against Pyricularia oryzae assessed as inhibition of fungal growth. The class given is functional.
For test [5], the system named is Candida albicans. Put plainly: Antifungal activity against Candida albicans. It counts as functional, organism-based.
Another test concerns Trichophyton rubrum. Put plainly: Antimicrobial activity against Trichophyton rubrum. It counts as functional, organism-based.

≈ marks a conversion by molar mass, not a printed value.

For `CO[C@H]1C(=O)N[C@]2(O)CC(=O)N(C)CC(=O)N[C@H](Cc3c[nH]c4cc(Cl)ccc34)C(=O)NCC(=O)NC[C@H](O)CC(=O)N[C@H]([C@@H](O)[C@@H](O)C/C=C/C=C/c3ccccc3)[C@@H](O)C(=O)N[C@@H]12`, the minimum inhibitory concentration (MIC) against Rhodotorula glutinis was 0.6 µg/mL (≈ 0.648 µM); against Saccharomyces cerevisiae, 1.6 µg/mL (≈ 1.73 µM); with Candida albicans [1], 3.1 µg/mL (≈ 3.35 µM).
In the case of `COc1cc(/C=N/O)nc(-c2ccccn2)c1` [CAERULOMYCIN A], the MIC in the test on Nakaseomyces glabratus and in the test on Pichia kudriavzevii was 0.39 µg/mL (≈ 1.7 µM) in each case.
In the case of `CC(C)C1=C2N=C3OC=CC=C[C@@]34OC[C@H]3O[C@@]4(OC3(C)C)N2[C@@H](Cc2ccccc2)C(=O)N1`, the MIC in the test on Fusarium graminearum was determined as 4 µg/mL (≈ 8.63 µM).
As for `COc1ccc2c(c1OC)O[C@]1(C(=O)N3O[C@@H]4C(=CC=C[C@H]4O)C[C@@]3(SC)C(=O)N1C)[C@@H]2SC`, the MIC in the test on Alternaria brassicae came out at 4 µg/mL (≈ 7.9 µM).
Take `CC1CC[C@@H](O)/C=C/CC[C@H](O)C[C@@H](O)C/C=C\C=C\[C@@H](O)C/C=C/C=C\C(=O)O1` (stereo not given in full): the MIC in the test on Pyricularia oryzae [2] and in the test on Alternaria solani was 0.8 µg/mL (≈ 1.9 µM) in each case.
As to `COc1c(Br)cc(Br)cc1Oc1c(O)cc(Br)cc1Br`, the MIC in the test with Aspergillus was 1.95 µg/mL (≈ 3.67 µM).
In the case of `CC[C@H](C)/C=C(C)/C=C/C1=CC2=C(Cl)C(=O)[C@@](C)(OC(C)=O)C(=O)C2=CO1`, the IC50 in the test on Aspergillus flavus was found to be 3.39 µg/mL (≈ 8.67 µM).
On to `C/C(=C\[C@@H](O)C/C(C)=C/CCc1ccoc1)C/C=C/c1ccoc1`, for which the MIC in the test with Aspergillus niger stood at 2 µg/mL (≈ 6.13 µM); in the test with Candida albicans [3] it was 0.25 µg/mL; against Candida tropicalis, 2 µg/mL (≈ 6.13 µM); against Fusarium oxysporum, 1 µg/mL (≈ 3.06 µM).
`CC(C)CC(=O)C[C@@H](C)[C@H]1CC[C@@]2(C)[C@H]3CC[C@H]4[C@](CO)(COS(=O)(=O)[O-])C(=O)CC[C@@]45C[C@@]35CC[C@]12C.[Na+]`: the LC50 in the test with Lindra thalassiae worked out at 0.94 µg/mL.
With `CC(C)=CCn1cc(CC2NC(=O)C(C(C)C)NC2=O)c2ccccc21` (stereo not given), the MIC in the test on Pyricularia oryzae [4] was 0.127 µg/mL (≈ 0.359 µM).
As for `C=C[C@@H]1C[C@H](C)C[C@H](C)[C@H]1c1c(O)ccn(O)c1=O`, the IC50 in the test with Candida albicans [5] was 6.9 µg/mL (≈ 26.2 µM); in the test on Trichophyton rubrum, 1.07 µg/mL (≈ 4.06 µM).
Regarding `CC(=O)OC[C@@]1(COS(=O)(=O)[O-])C(=O)CC[C@]23C[C@]24CC[C@]2(C)[C@@H]([C@H](C)CC(=O)CC(C)C)CC[C@@]2(C)[C@H]4CC[C@@H]13.[Na+]`, the LC50 in the test with Lindra thalassiae was 0.03 µg/mL.
